According to ChEMBL document CHEMBL6103537 (J Med Chem, 2025):
Calls of active or inactive are those of the source. No cut-off for these calls is given here.

Tests used:
[1] = biological target: T1, Signal transducer and activator of transcription 5B (Homo sapiens, UniProt P51692); experiment: Binding affinity to STAT5B (unknown origin) assessed as inhibition constant incubated for 1 hr by fluorescence polarization assay
T1 sequence (P51692 whole entry): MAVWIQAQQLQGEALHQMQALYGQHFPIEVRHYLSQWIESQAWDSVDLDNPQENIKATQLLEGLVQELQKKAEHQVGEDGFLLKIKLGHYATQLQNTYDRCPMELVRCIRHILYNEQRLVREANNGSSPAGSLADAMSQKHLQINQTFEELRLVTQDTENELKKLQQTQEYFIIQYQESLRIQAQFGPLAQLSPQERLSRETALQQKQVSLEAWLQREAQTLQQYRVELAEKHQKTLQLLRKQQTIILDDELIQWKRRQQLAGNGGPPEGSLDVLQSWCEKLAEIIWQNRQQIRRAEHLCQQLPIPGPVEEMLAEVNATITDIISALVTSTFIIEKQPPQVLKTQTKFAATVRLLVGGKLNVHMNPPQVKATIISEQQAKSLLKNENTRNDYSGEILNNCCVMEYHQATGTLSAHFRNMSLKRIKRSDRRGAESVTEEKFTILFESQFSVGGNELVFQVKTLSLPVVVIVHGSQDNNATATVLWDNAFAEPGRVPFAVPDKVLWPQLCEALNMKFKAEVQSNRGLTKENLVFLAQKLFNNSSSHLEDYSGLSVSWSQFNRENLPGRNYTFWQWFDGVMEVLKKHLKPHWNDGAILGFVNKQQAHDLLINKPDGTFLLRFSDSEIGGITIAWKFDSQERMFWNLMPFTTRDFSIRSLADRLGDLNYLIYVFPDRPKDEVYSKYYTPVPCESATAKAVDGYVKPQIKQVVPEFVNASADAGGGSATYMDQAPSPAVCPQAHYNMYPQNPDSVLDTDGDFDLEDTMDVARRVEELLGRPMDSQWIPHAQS

[2] = biological target: T2, Signal transducer and activator of transcription 5A (Homo sapiens, UniProt P42229); experiment: Binding affinity to STAT5A (unknown origin) assessed as inhibition constant incubated for 1 hr by fluorescence polarization assay
T2 sequence (P42229 whole entry): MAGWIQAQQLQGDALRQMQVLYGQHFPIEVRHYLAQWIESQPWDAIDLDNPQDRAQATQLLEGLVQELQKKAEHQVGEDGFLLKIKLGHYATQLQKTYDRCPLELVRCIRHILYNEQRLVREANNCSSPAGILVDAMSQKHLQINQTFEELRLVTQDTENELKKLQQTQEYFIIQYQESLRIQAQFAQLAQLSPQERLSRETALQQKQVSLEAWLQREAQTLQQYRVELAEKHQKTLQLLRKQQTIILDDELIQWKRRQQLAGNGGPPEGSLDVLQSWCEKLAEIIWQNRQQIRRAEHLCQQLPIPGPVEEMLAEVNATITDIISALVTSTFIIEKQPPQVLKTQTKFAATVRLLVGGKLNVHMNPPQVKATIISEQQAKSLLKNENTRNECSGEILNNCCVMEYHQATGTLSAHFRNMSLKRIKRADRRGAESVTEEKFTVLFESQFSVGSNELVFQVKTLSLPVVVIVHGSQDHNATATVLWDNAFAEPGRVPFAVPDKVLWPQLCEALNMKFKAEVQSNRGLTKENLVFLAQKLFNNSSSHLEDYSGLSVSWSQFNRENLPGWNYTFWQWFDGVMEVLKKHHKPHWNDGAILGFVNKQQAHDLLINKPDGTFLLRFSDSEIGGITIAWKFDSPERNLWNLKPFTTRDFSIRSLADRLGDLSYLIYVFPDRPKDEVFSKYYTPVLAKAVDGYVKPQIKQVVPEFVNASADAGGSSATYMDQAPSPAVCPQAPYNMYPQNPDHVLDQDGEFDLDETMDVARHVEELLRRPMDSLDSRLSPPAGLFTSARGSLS

[3] = biological target: T3, Signal transducer and activator of transcription 6 (Homo sapiens, UniProt P42226); experiment: Binding affinity to N-terminal his6-tgged STAT6 (unknown origin) (113 to 658 residues) assessed as inhibition constant incubated for 1 hr by fluorescence polarization assay
T3 sequence (P42226 whole entry): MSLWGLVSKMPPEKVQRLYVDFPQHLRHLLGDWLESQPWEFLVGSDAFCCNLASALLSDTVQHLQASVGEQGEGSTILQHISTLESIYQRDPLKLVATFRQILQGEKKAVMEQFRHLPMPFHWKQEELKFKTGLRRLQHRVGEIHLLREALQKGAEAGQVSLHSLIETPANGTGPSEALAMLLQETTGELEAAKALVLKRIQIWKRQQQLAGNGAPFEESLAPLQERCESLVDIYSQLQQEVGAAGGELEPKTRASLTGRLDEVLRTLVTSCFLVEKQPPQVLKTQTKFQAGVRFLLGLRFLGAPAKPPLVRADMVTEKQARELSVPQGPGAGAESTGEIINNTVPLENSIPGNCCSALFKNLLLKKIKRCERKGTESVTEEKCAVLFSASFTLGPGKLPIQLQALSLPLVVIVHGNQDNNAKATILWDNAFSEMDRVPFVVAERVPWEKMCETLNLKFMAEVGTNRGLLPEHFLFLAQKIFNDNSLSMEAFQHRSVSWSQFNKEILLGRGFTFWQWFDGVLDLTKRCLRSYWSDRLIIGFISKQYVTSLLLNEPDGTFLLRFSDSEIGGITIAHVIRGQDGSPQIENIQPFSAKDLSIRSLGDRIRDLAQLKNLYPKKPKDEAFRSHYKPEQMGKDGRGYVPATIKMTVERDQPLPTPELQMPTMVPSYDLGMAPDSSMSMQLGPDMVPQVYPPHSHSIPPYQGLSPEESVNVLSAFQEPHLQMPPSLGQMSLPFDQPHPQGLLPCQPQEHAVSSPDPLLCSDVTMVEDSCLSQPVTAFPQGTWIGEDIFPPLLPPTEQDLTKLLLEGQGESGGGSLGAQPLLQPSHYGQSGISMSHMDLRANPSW

[4] = biological target: T4, Protein cereblon/Signal transducer and activator of transcription 6 (Homo sapiens, UniProt P42226+Q96SW2); experiment: PROTAC activity at STAT6/CRBN in human MV4-11 cells assessed as reduction in STAT6 level at 0.5 uM measured upto 1200 mins by HiBiT bioluminescence assay; assay type: cell-based
[5] = biological target: Protein cereblon/Signal transducer and activator of transcription 4 (Homo sapiens) (UniProt Q96SW2+Q14765); experiment: PROTAC activity at STAT4/CRBN in human PBMC cells assessed as reduction in STAT4 level at 10 uM incubated for 18 hrs by Western blot analysis relative to control; assay type: cell-based
[6] = biological target: Protein cereblon/Signal transducer and activator of transcription 3 (Homo sapiens) (UniProt P40763+Q96SW2); experiment: PROTAC activity at STAT3/CRBN in human PBMC cells assessed as reduction in STAT3 level at 10 uM incubated for 18 hrs by Western blot analysis relative to control; assay type: cell-based
[7] = biological target: Protein cereblon/Signal transducer and activator of transcription 2 (Homo sapiens) (UniProt Q96SW2+P52630); experiment: PROTAC activity at STAT2/CRBN in human PBMC cells assessed as reduction in STAT2 level at 10 uM incubated for 18 hrs by Western blot analysis relative to control; assay type: cell-based
[8] = biological target: Protein cereblon/Signal transducer and activator of transcription 1-alpha/beta (Homo sapiens) (UniProt P42224+Q96SW2); experiment: PROTAC activity at STAT1/CRBN in human PBMC cells assessed as reduction in STAT1 level at 10 uM incubated for 18 hrs by Western blot analysis relative to control; assay type: cell-based
[9] = biological target: Protein cereblon/Signal transducer and activator of transcription 5A/Signal transducer and activator of transcription 5B (Homo sapiens) (UniProt P42229+P51692+Q96SW2); experiment: PROTAC activity at STAT5/CRBN in human PBMC cells assessed as reduction in STAT5 level at 10 uM incubated for 18 hrs by Western blot analysis relative to control; assay type: cell-based
[10] = biological target: T4, Protein cereblon/Signal transducer and activator of transcription 6; experiment: PROTAC activity at STAT6/CRBN in human L-1236 cells assessed as reduction in STAT6 level at 10 uM incubated for 24 hrs by Western blot analysis; assay type: cell-based
[11] = biological target: T4, Protein cereblon/Signal transducer and activator of transcription 6; experiment: PROTAC activity at STAT6/CRBN in human MV4-11 cells assessed as reduction in STAT6 level at upto 10 uM incubated for 12 hrs by Western blot analysis; assay type: cell-based
[12] = biological target: T4, Protein cereblon/Signal transducer and activator of transcription 6; experiment: PROTAC activity at STAT6 at Y641 residue/CRBN in human L-1236 cells assessed as reduction in STAT6 level at 10 uM incubated for 24 hrs by Western blot analysis; assay type: cell-based

`CC(C)(C)[C@H](NC(=O)c1cc2cc(C(F)(F)P(=O)(O)O)ccc2s1)C(=O)N1CCC[C@H]1C(=O)N1CCOC(c2cccnc2)C1` (stereo partly specified) showed a Ki [1] greater than 5000 nM, a Ki [2] greater than 5000 nM and a Ki [3] of 310 nM.
`CC(C)(C)[C@H](NC(=O)c1cc2cc(C(F)(F)P(=O)(O)O)ccc2s1)C(=O)N1CCC[C@H]1C(=O)N1CCOC(C2CCCCC2)C1` (stereo partly specified) showed a Ki [1] of 200 nM, a Ki [2] of 1800 nM and a Ki [3] of 500 nM.
`CC(C)(C)[C@H](NC(=O)c1cc2cc(C(F)(F)P(=O)(O)O)ccc2s1)C(=O)N1CCC[C@H]1C(=O)N1CCOC(c2ccc3ccccc3c2)C1` (stereo partly specified) showed a Ki [1] of 800 nM, a Ki [2] of 1400 nM and a Ki [3] of 83 nM.
Compound `CC(C)(C)[C@H](NC(=O)c1cc2cc(C(F)(F)P(=O)(O)O)ccc2s1)C(=O)N1CCC[C@H]1C(=O)N1CCOC(c2ccc(F)cc2F)C1` (stereo partly specified) has a Ki [1] greater than 5000 nM, a Ki [2] greater than 5000 nM and a Ki [3] of 420 nM.
`CC(C)(C)[C@H](NC(=O)c1cc2cc(C(F)(F)P(=O)(O)O)ccc2s1)C(=O)N1CCC[C@H]1C(=O)N1CCOC(c2ccncc2)C1` (stereo partly specified) was tested, and the Ki [1] was greater than 5000 nM, the Ki [2] was greater than 5000 nM and the Ki [3] was 1100 nM.
In the case of `CC(C)(C)[C@H](NC(=O)c1cc2cc(C(F)(F)P(=O)(O)O)ccc2s1)C(=O)N1CCC[C@H]1C(=O)N1CCOC(c2ccccc2F)C1` (stereo partly specified), the Ki [1] is reported as 2400 nM, the Ki [2] is reported as greater than 5000 nM and the Ki [3] is reported as 110 nM.
`NS(=O)(=O)OC[C@@H]1C[C@@H](n2ccc3c(N[C@H]4CCc5ccccc54)ncnc32)C[C@@H]1O` was tested, and the Activity [4] was “No effect”.
With `CN1C(=O)CCC(N2Cc3c(C#CCCCCCO[C@H]4C[C@@H](C(=O)N5CCO[C@H](c6ccccc6)C5)N(C(=O)[C@@H](NC(=O)c5cc6cc(C(F)(F)P(=O)(O)O)ccc6s5)C(C)(C)C)C4)cccc3C2=O)C1=O` (stereo partly specified) the Activity [5] was “No effect”, the Activity [6] was “No effect” and the Activity [7] was “No effect”. The Activity [8] was “No effect”, the Activity [9] was “No effect” and the Activity [10] was “No effect”. The Activity [11] was “inactive” and the Activity [12] was “No effect”.
Work on `CC(C)(C)[C@H](NC(=O)c1cc2cc(C(F)(F)P(=O)(O)O)ccc2s1)C(=O)N1CCC[C@H]1C(=O)N1CCOC(Cc2ccccc2)C1` (stereo partly specified) yielded a Ki [1] greater than 5000 nM, a Ki [2] greater than 5000 nM and a Ki [3] of 1300 nM.
For `CC(C)(C)[C@H](NC(=O)c1cc2cc(C(F)(F)P(=O)(O)O)ccc2s1)C(=O)N1CCC[C@H]1C(=O)N1CCSC(c2ccccc2)C1` (stereo partly specified), the Ki [1] was 1800 nM, the Ki [2] was 1400 nM and the Ki [3] was 80 nM.
In the case of `CC(C)(C)[C@H](NC(=O)c1cc2cc(C(F)(F)P(=O)(O)O)ccc2s1)C(=O)N1CCC[C@H]1C(=O)N1CCOC(c2ccc(F)cc2)C1` (stereo partly specified), the Ki [1] is reported as 4400 nM, the Ki [2] is reported as greater than 5000 nM and the Ki [3] is reported as 220 nM.
